Results published in US20240316051A1, “A PHARMACEUTICAL COMBINATION AND USE THEREOF” (Ascentage Pharma (Suzhou) Co., Ltd., priority 2021, published 2024).

Biological target: T1, EED (1-441)-His protein (Homo sapiens, UniProt O75530)
T1 construct: 20 nM EED (1-441)-His protein
Assay: EED-H3K27Me3 peptide competition binding assay by AlphaScreen
Conditions: Table 4A, read-out: Alpha screen
Method: EED-H3K27Me3 Peptide Competition Binding Assay by AlphaScreen (α-Screen):
The compounds at each concentration (2.5 μl of each) were transferred into a 384-well Perkin Elmer OptiPlate-384 white plates. 5 μl of solutions containing 20 nM EED (1-441)-His protein in the buffer (25 mM HEPES, pH 8, 0.02% Tween-20, 0.5% BSA) were added to the wells and then incubated with compound for 15 min. 2.5 μl of solutions containing 20 nM biotin-H3K27Me3 (19-33) peptide in the buffer (25 mM HEPES, pH 8, 0.02% Tween-20, 0.5% BSA) were added to the wells and then incubated with compound for 30 min. AlphaScreen detection beads mix was prepared immediately before use by mixing nickel chelate acceptor beads and streptavidin donor beads in a 1:1 ratio (Perkin Elmer, Product No. 6760619C/M/R) into the buffer described above. Then 10 μl of the detection beads mix was added to the plate and incubated in the dark at RT for 1 h. The final concentration of donor and acceptor beads was 10 μg/ml for each. Plates were read on CLARIOStar plate reader (BMG Labtech) using the AlphaScreen setting adapted for optimal signal detection with a 615 nm filter, after sample excitation at 680 nm. The emission signal at 615 nm was used to quantify compound inhibition. AlphaScreen signals were normalized based on the reading coming from the positive (maximum signal control) and negative controls (minimum signal control) to give percentage of activities left. The data were then fit to a dose response equation to get the IC50 values.

T1 sequence (O75530 whole entry): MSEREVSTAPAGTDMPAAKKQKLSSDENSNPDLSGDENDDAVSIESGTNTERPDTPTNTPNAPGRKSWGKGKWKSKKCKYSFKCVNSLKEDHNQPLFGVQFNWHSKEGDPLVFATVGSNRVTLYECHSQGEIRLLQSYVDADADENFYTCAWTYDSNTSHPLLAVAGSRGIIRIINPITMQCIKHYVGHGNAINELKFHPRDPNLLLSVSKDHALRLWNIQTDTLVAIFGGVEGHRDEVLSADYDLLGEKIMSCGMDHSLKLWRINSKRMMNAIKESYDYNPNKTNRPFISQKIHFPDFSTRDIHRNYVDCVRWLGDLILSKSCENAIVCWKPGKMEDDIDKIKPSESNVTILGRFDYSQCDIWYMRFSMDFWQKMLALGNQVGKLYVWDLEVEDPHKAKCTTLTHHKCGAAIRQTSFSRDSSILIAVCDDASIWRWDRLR

| Compound | IC50 [nM] |
| --- | --- |
| O=C1OCc2ccc(C(F)(F)F)cc2-c2cnc(NCc3c(F)ccc4c3CCO4)n3cnc1c23 [Compound 24, 12-(((5-fluoro-2,3-dihydrobenzofuran-4-yl)methyl)amino)-8-(trifluoromethyl)-3H,5H-4-oxa-2,11,12a-triazabenzo[4,5]cycloocta[1,2,3-cd]inden-3-one] | 4.75 |
| O=C1NCc2nc(C(F)(F)F)ccc2-c2cnc(NCc3c(F)ccc4c3CCO4)n3cnc1c23 [Compound 25, 12-(((5-fluoro-2,3-dihydrobenzofuran-4-yl)methyl)amino)-7-(trifluoromethyl)-4,5-dihydro-3H-2,4,6, 11,12a-pentaazabenzo[4,5]cycloocta[1,2,3-cd] inden-3-one] | 3.31 |
| O=C1NCc2ccc(C(F)(F)F)cc2-c2cnc(NCc3c(F)ccc4c3CCO4)n3cnc1c23 [Compound 26, 12-(((5-fluoro-2,3-dihydrobenzofuran-4-yl)methyl)amino)-8-(trifluoromethyl)-4,5-dihydro-3H-2,4,11, 12a-tetraazabenzo[4,5]cycloocta[1,2,3-cd]inden-3-one] | 9.84 |
| O=C1OCc2cc(C(F)(F)F)ccc2-c2cnc(NCc3cccc4c3OCO4)n3cnc1c23 [Compound 27, 12-((benzo[d][1,3]dioxol-4-ylmethyl)amino)-7-(trifluoromethyl)-3H,5H-4-oxa-2,11,12a-triazabenzo [4,5]cycloocta[1,2,3-cd]inden-3-one] | 5.87 |
| COc1cccc(F)c1CNc1ncc2c3c(ncn13)C(=O)OCc1cc(C(F)(F)F)ccc1-2 [Compound 28, 12-((2-fluoro-6-methoxybenzyl)amino)-7-(trifluoro-methyl)-3H,5H-4-oxa-2,11,12a-triazabenzo[4,5] cycloocta[1,2,3-cd]inden-3-one] | 2.58 |
| O=C1OCc2ccc(C(F)(F)F)nc2-c2cnc(NCc3c(F)ccc4c3CCO4)n3cnc1c23 [Compound 29, 12-(((5-fluoro-2,3-dihydrobenzofuran-4-yl)methyl)amino)-8-(trifluoromethyl)-3H,5H-4-oxa-2,9,11, 12a-tetraazabenzo[4,5]cycloocta[1,2,3-cd]inden-3-one] | 20.7 |
| O=C1OCc2ncc(C(F)(F)F)cc2-c2cnc(NCc3c(F)ccc4c3CCO4)n3cnc1c23 [Compound 30, 12-(((5-fluoro-2,3-dihydrobenzofuran-4-yl)methyl)amino)-8-(trifluoromethyl)-3H,5H-4-oxa-2,6,11, 12a-tetraazabenzo[4,5]cycloocta[1,2,3-cd]inden-3-one] | 2.03 |
| O=C1OCc2cc(OC(F)(F)F)ccc2-c2cnc(NCc3c(F)ccc4c3CCO4)n3cnc1c23 [Compound 31, 12-(((5-fluoro-2,3-dihydrobenzofuran-4-yl)methyl)amino)-7-(trifluoromethoxy)-3H,5H-4-oxa-2,11, 12a-triazabenzo[4,5]cycloocta[1,2,3-cd]inden-3-one] | 0.604 |
| O=C1OCc2cnc(C(F)(F)F)cc2-c2cnc(NCc3c(F)ccc4c3CCO4)n3cnc1c23 [Compound 32, 12-(((5-fluoro-2,3-dihydrobenzofuran-4-yl)methyl)amino)-8-(trifluoromethyl)-3H,5H-4-oxa-2,7,11, 12a-tetraazabenzo[4,5]cycloocta[1,2,3-cd]inden-3-one] | 1.84 |
| CN1Cc2nc(C(F)(F)F)ccc2-c2cnc(NCc3c(F)ccc4c3CCO4)n3cnc(c23)C1=O [Compound 33, 12-(((5-fluoro-2,3-dihydrobenzofuran-4-yl)methyl)amino)-4-methyl-7-(trifluoromethyl)-4,5-dihydro-3H-2,4,6,11,12a-pentaazabenzo[4,5]cycloocta [1,2,3-cd]inden-3-one] | 1.06 |
| CN1Cc2cc(C(F)(F)F)ncc2-c2cnc(NCc3c(F)ccc4c3CCO4)n3cnc(c23)C1=O [Compound 34, 12-(((5-fluoro-2,3-dihydrobenzofuran-4-yl)methyl)amino)-4-methyl-7-(trifluoromethyl)-4,5-dihydro-3H-2,4,8,11,12a-pentaazabenzo[4,5]cycloocta [1,2,3-cd]inden-3-one] | 0.67 |
| O=C1c2ncn3c(NCc4c(F)ccc5c4CCO5)ncc(c23)-c2ccc(C(F)(F)F)nc2CN1CC1COCCO1 (centres unmarked) [Compound 35, 4-((1,4-dioxan-2-yl)methyl)-12-(((5-fluoro-2,3-dihydrobenzofuran-4-yl)methyl)amino)-7-(trifluoro-methyl)-4,5-dihydro-3H-2,4,6,11,12a-pentaazabenzo [4,5]cycloocta[1,2,3-cd]inden-3-one] | 1.16 |
| O=C1c2ncn3c(NCc4c(F)ccc5c4CCO5)ncc(c23)-c2cnc(C(F)(F)F)cc2CN1C1CC1 [Compound 36, 4-cyclopropyl-12-(((5-fluoro-2,3-dihydrobenzofuran-4-yl)methyl)amino)-7-(trifluoromethyl)-4,5-dihydro-3H-2,4,8,11,12a-pentaazabenzo[4,5]cycloocta[1,2,3-cd]inden-3-one] | 1.44 |
| O=C1c2ncn3c(NCc4c(F)ccc5c4CCO5)ncc(c23)-c2cnc(C(F)(F)F)cc2CN1CC1COCCO1 (centres unmarked) [Compound 37, 4-((1,4-dioxan-2-yl)methyl)-12-(((5-fluoro-2,3-dihydrobenzofuran-4-yl)methyl)amino)-7-(trifluoro-methyl)-4,5-dihydro-3H-2,4,8,11,12a-pentaazabenzo [4,5]cycloocta[1,2,3-cd]inden-3-one] | 0.94 |
| CN1CCC(CN2Cc3cc(C(F)(F)F)ncc3-c3cnc(NCc4c(F)ccc5c4CCO5)n4cnc(c34)C2=O)CC1 [Compound 38, 12-(((5-fluoro-2,3-dihydrobenzofuran-4-yl)methyl)amino)-4-((1-methylpiperidin-4-yl)methyl)-7-(trifluoromethyl)-4,5-dihydro-3H-2,4,8,11,12a-pentaazabenzo[4,5]cycloocta[1,2,3-cd]inden-3-one] | 1.25 |
| CN1Cc2ccc(C(F)(F)F)nc2-c2cnc(NCc3c(F)ccc4c3CCO4)n3cnc(c23)C1=O [Compound 39, 12-(((5-fluoro-2,3-dihydrobenzofuran-4-yl)methyl)amino)-4-methyl-8-(trifluoromethyl)-4,5-dihydro-3H-2,4,9,11,12a-pentaazabenzo[4,5]cycloocta [1,2,3-cd]inden-3-one] | 26.1 |
| O=C1c2ncn3c(NCc4c(F)ccc5c4CCO5)ncc(c23)-c2nc(C(F)(F)F)ccc2CN1CC1COCCO1 (centres unmarked) [Compound 40, 4-((1,4-dioxan-2-yl)methyl)-12-(((5-fluoro-2,3-dihydrobenzofuran-4-yl)methyl)amino)-8-(trifluoro-methyl)-4,5-dihydro-3H-2,4,9,11,12a-pentaazabenzo [4,5]cycloocta[1,2,3-cd]inden-3-one] | 10.5 |
| O=C1c2ncn3c(NCc4c(F)ccc5c4CCO5)ncc(c23)-c2ccc(C(F)(F)F)nc2CN1C1CC1 [Compound 41, 4-cyclopropyl-12-(((5-fluoro-2,3-dihydrobenzofuran-4-yl)methyl)amino)-7-(trifluoromethyl)-4,5-dihydro-3H-2,4,6,11,12a-pentaazabenzo[4,5] cycloocta[1,2,3-cd]inden-3-one] | 0.6 |
| CN1CCC(CN2Cc3nc(C(F)(F)F)ccc3-c3cnc(NCc4c(F)ccc5c4CCO5)n4cnc(c34)C2=O)CC1 [Compound 42, 12-(((5-fluoro-2,3-dihydrobenzofuran-4-yl)methyl)amino)-4-((1-methylpiperidin-4-yl)methyl)-7-(trifluoromethyl)-4,5-dihydro-3H-2,4,6,11,12a-pentaazabenzo[4,5]cycloocta[1,2,3-cd]inden-3-one] | 0.84 |
| O=C1c2ncn3c(NCc4c(F)ccc5c4CCO5)ncc(c23)-c2cnc(C(F)(F)F)cc2CN1CC1(O)CC1 [Compound 43, 12-(((5-fluoro-2,3-dihydrobenzofuran-4-yl)methyl)amino)-4-((1-hydroxycyclopropyl)methyl)-7-(trifluoromethyl)-4,5-dihydro-3H-2,4,8,11,12a-pentaazabenzo[4,5]cycloocta[1,2,3-cd]inden-3-one] | 1.05 |
| O=C1c2ncn3c(NCc4c(F)ccc5c4CCO5)ncc(c23)-c2ccc(C(F)(F)F)nc2CN1CC1(O)CC1 [Compound 44, 12-(((5-fluoro-2,3-dihydrobenzofuran-4-yl)methyl)amino)-4-((1-hydroxycyclopropyl)methyl)-7-(trifluoromethyl)-4,5-dihydro-3H-2,4,6,11,12a-pentaazabenzo[4,5]cycloocta[1,2,3-cd]inden-3-one] | 1.34 |
| O=C1c2ncn3c(NCc4c(F)ccc5c4CCO5)ncc(c23)-c2cnc(C(F)(F)F)cc2CN1CC1CCOCC1 [Compound 45, 12-(((5-fluoro-2,3-dihydrobenzofuran-4-yl)methyl)amino)-4-((tetrahydro-2H-pyran-4-yl)methyl)-7-(trifluoromethyl)-4,5-dihydro-3H-2,4,8,11,12a-pentaazabenzo[4,5]cycloocta[1,2,3-cd]inden-3-one] | 3.39 |
| O=C1c2ncn3c(NCc4c(F)ccc5c4CCO5)ncc(c23)-c2ccc(C(F)(F)F)nc2CN1CC1CCOCC1 [Compound 46, 12-(((5-fluoro-2,3-dihydrobenzofuran-4-yl)methyl)amino)-4-((tetrahydro-2H-pyran-4-yl)methyl)-7-(trifluoromethyl)-4,5-dihydro-3H-2,4,6,11, 12a-pentaazabenzo[4,5]cycloocta[1,2,3-cd]inden-3-one] | 1.07 |
